Patent US10611795B2, “Methods for viral inactivation using eco-friendly detergents” (priority 2013, dated 2020)
“And” between values parts separate entries of the source, which are not always exact repeats. Identical values can stand only once. Like-named read-outs stand apart in the source and are kept apart here.

Tests used:
[1] = cited from earlier work; for acute EC50: 30 min Photobacterium phosphoreum (marine light-emitting bacteria); for Biodegradability classification in Closed Bottle and Modified OECD Screening Tests: both Closed Bottle and Modified OECD Screening Tests; for EC50: 3 weeks, Selenastrum capricornutum
[2] = Detergent mixing turbidity analysis (average absorbance 340-360 nm); type: physicochemical; conditions: MAb1 HCCF
[3] = Turbidity after detergent exposure; type: physicochemical; conditions: MAb3 HCCF and MAb3 MSS pool, three hours
[4] = test system: Xenotropic Murine Leukemia Virus (XMuLV); type: cell-based; conditions: for xMuLV inactivation LRV, Time 2 / xMuLV inactivation LRV, Time 3 / xMuLV inactivation LRV, Time 0.5 / xMuLV inactivation LRV, Time 1 / xMuLV inactivation LRV, Time 6 / xMuLV inactivation, in words: 20° C.; for xMuLV inactivation LRV, Time 2: 2 h; for xMuLV inactivation LRV, Time 3: 3 h; for xMuLV inactivation LRV, Time 0.5: 0.5 h; for xMuLV inactivation LRV, Time 1: 1 h; for xMuLV inactivation LRV, Time 6: 6 h; for xMuLV inactivation, in words: detergent or solvent alone; for XMuLV LRV: rProtein1 CaptoAdhere Pool, Room Temperature
[5] = EHS evaluation: basic physical and toxicological characteristics from manufacturer and government literature; conditions: not solid due to the algal and fish data
[6] = test system: bovine viral diarrhea virus (BVDV); test: BVDV inactivation, plaque assay with BT indicator cells (LRV); type: cell-based; conditions: rProtein 2 HCCF, 0.3% Detergent, 20° C., Run 1, Run 2
[7] = MAb1 HCCF, listed as 0.03M caprylate pH 4.5
[8] = MAb1 HCCF, listed as 0.03M caprylate pH 7.6
[9] = MAb1 HCCF, listed as 0.1M caprylate pH 5.0
[10] = MAb1 HCCF, listed as 0.1M caprylate pH 7.6
[11] = MAb1 HCCF, listed as 1% Polysorbate 20
[12] = MAb1 HCCF, listed as 2% Polysorbate 20
[13] = various (12 species) marine microalgae, 10-12 d
[14] = ~2 d, Sphaerechinus granularis, sea urchin embryo-larval test, marine
[15] = MAb1 Protein A pool, listed as 1% Polysorbate 80
[16] = MAb1 Protein A pool, listed as 2% Polysorbate 80

For `CCCCCCOC1OC(CO)C(O)C(O)C1O` (stereo not drawn) [Alkylglucosides C6], which “acute EC50” value [1] is on record?
The value was “EC50: C6 = 490 mg/l; C8 =”.

And the “Biodegradability classification in Closed Bottle and Modified OECD Screening Tests” value [1]?
The value was “C10 and C12) are readily”.

With `CCCCCCCCOC1OC(CO)C(O)C(O)C1O` (stereo not drawn) [Alkylglucosides C8] as the compound, how does the “acute EC50” value [1] read?
Its value is 11.7 µg/mL.

What about the “Biodegradability classification in Closed Bottle and Modified OECD Screening Tests” value [1] of the same compound?
Its value is “C10 and C12) are readily”.

With `CCCCCCCCCCOC1OC(CO)C(O)C(O)C1O` (stereo not drawn) [Alkylglucosides C10] as the compound, how does the “acute EC50” value [1] read?
Its value is 7.9 µg/mL.

And the “Biodegradability classification in Closed Bottle and Modified OECD Screening Tests” value [1]?
The value was “C10 and C12) are readily”.

For `CCCCCCCCCCCCOC1OC(CO)C(O)C(O)C1O` (stereo not drawn) [Alkylglucosides C12], which “acute EC50” value [1] is on record?
The value was “C12 = 8.8 mg/l), 30 min”.

What about the “Biodegradability classification in Closed Bottle and Modified OECD Screening Tests” value [1] of the same compound?
The value was “C10 and C12) are readily”.

For `CCCCCCCC(=O)O` [caprylate, caprylic acid], which “turbidity during mixing, after filtration and overnight incubation (FIGS. 2, 3), in words” value [2] is on record?
Its value is “Turbidity increased with the addition and mixing”.

And the “turbidity, in words” value [3]?
The value was “Significant turbidity”.

What about the “xMuLV inactivation LRV, Time 2” value [4, 7] of the same compound?
Its value is no less than 5.0.

And the “xMuLV inactivation LRV, Time 2” value [4, 8]?
Its value is 0.21.

And the “xMuLV inactivation LRV, Time 2” value [4, 9]?
The value was no less than 5.1.

And the “xMuLV inactivation LRV, Time 2” value [4, 10]?
Its value is no less than 6.0.

What about the “xMuLV inactivation LRV, Time 3” value [4, 7] of the same compound?
Its value is no less than 5.0.

And the “xMuLV inactivation LRV, Time 3” value [4, 8]?
The value was 0.30.

And the “xMuLV inactivation LRV, Time 3” value [4, 9]?
The value was no less than 5.1.

What about the “xMuLV inactivation LRV, Time 3” value [4, 10] of the same compound?
The value was no less than 6.0.

Which Biodegradability classification ([1]; as stated in the Biodegradability column, no single test named) does the source give for `CCCCCCCCCCCC(=O)NCCC[N+](C)(C)CC(=O)[O-]` [lauramidopropyl betaine] here?
The Biodegradability classification was “readily biodegradable”.

With Polysorbate 20 as the compound, how does the “xMuLV inactivation LRV, Time 0.5” value [4, 11] read?
Its value is 1.0.

What about the “xMuLV inactivation LRV, Time 0.5” value [4, 12] of the same compound?
Its value is 0.6.

And the “xMuLV inactivation LRV, Time 1” value [4, 11]?
The value was 1.4.

And the “xMuLV inactivation LRV, Time 1” value [4, 12]?
The value was 0.7.

And the “xMuLV inactivation LRV, Time 3” value [4, 11]?
The value was 2.3.

What about the “xMuLV inactivation LRV, Time 3” value [4, 12] of the same compound?
The value was 2.2.

And the “xMuLV inactivation LRV, Time 6” value [4, 11]?
The value was 4.5.

And the “xMuLV inactivation LRV, Time 6” value [4, 12]?
The value was 5.6.

What about the “xMuLV inactivation, in words” value ([4]; MAb1 HCCF) of the same compound?
Its value is “less effective”.

And the “acute LC50” value ([1]; 1 d Artemia sp. (marine))?
The value was “acute LC50 1447 mg/l 1 d”.

What about the LC50 ([1]; 1 d Poecilia reticulata, freshwater) of the same compound?
The LC50 was “LC50 350 mg/l 1 d Poecilia”.

What about the “Biodegradability according to Roche's inherent biodegradability test (OECD 302)” value [1] of the same compound?
The value was “Poor biodegradability”.

What about the EC50 ([1]; freshwater) of the same compound?
The EC50 was “EC50 ≤100 mg/l 3 weeks”.

And the “acute NOEC” value ([1]; highest tested concentration, limit test, 48 h Daphnia magna, OECD202)?
Its value is “acute NOEC 10 mg/l”.

What about the “chronic NOEC” value ([1]; highest tested concentration, limit test, 21 d Daphnia magna, OECD repro) of the same compound?
Its value is “chronic NOEC 10 mg/l”.

And the “chronic NOEC” value [1, 13]?
Its value is “chronic NOEC 10 mg/l”.

And the “chronic NOEC” value [1, 14]?
The value was “chronic NOEC 20 mg/l ~2 d,”.

And the “preliminary acute-based freshwater PNEC” value [5]?
Its value is “freshwater PNEC 0.1 mg/l,”.

Which “xMuLV inactivation LRV, Time 1” value ([4]; MAb1 HCCF) does the source give for Polysorbate 80 here?
Its value is 3.3.

And the “xMuLV inactivation LRV, Time 3” value ([4]; MAb1 HCCF)?
Its value is 5.7.

And the “xMuLV inactivation, in words” value ([4]; MAb1 HCCF)?
The value was “less effective”.

And the “xMuLV inactivation LRV, Time 0.5” value [4, 15]?
The value was 0.4.

And the “xMuLV inactivation LRV, Time 0.5” value [4, 16]?
The value was 0.7.

What about the “xMuLV inactivation LRV, Time 1” value [4, 15] of the same compound?
Its value is 0.9.

And the “xMuLV inactivation LRV, Time 1” value [4, 16]?
The value was 0.7.

And the “xMuLV inactivation LRV, Time 2” value ([4]; MAb1 Protein A pool)?
The value was 1.2.

What about the “xMuLV inactivation LRV, Time 3” value [4, 15] of the same compound?
Its value is 1.1.

What about the “xMuLV inactivation LRV, Time 3” value [4, 16] of the same compound?
The value was 1.0.

What about the “XMuLV LRV” value ([4]; 5 min, Run 1, Run 2) of the same compound?
Its value is “.45”.

What about the “XMuLV LRV” value ([4]; 10 min, Run 1, Run 2) of the same compound?
The value was “.57”.

What about the “XMuLV LRV” value ([4]; 15 min) of the same compound?
Its value is “.82”.

What about the “XMuLV LRV” value ([4]; 30 min) of the same compound?
Its value is 2.1.

What about the “time to effective XMuLV inactivation” value ([4]; rProtein1 CaptoAdhere pool, room temperature) of the same compound?
Its value is 1 h.

What about the “?NOEC” value ([1]; 3 weeks Selenastrum capricornutum, printed with question marks) of the same compound?
Its value is 100 mg/l? 3 weeks.

What about the “chronic NOEC” value ([1]; 4 d Gloeocapsa (Cyanobacteria)) of the same compound?
Its value is “chronic NOEC 100 mg/l 4 d”.

What about the “chronic NOEC” value ([1]; 96 h Tetrahymena pyriformis) of the same compound?
Its value is “chronic NOEC 250 mg/l 96 h”.

What about the “algal NOEC” value ([1]; Chlorella vulgaris 96 h, freshwater) of the same compound?
The value was “algal NOEC 2 mg/l”.

And the “Biodegradability according to Roche's inherent biodegradability test (OECD 302)” value [1]?
The value was “Poor biodegradability”.

And the “algal EC10 (~NOEC)” value ([1]; Scenedesmus quadricauda 96 h, freshwater)?
Its value is “algal EC10 (~NOEC) 6.99 mg/l”.

And the EC50 ([1]; freshwater)?
The EC50 was “EC50 ≥100 mg/l, ?NOEC”.

And the “chronic NOEC” value [1, 13]?
Its value is “chronic NOEC 10 mg/l”.

And the “chronic NOEC” value [1, 14]?
Its value is “chronic NOEC 20 mg/l ~2 d,”.

With Triton X-100 as the compound, how does the “BVDV log reduction value” ([6]; 30 min) read?
Its value is 5.4 and 5.5.

And the “BVDV log reduction value” ([6]; 60 min)?
Its value is >5.4 and >5.5.
